The target of test [1] is T1, Rat FAAH (Rattus norvegicus, UniProt P97612).
T1 construct: expressed in transfected cells
T1 sequence (P97612 1-579): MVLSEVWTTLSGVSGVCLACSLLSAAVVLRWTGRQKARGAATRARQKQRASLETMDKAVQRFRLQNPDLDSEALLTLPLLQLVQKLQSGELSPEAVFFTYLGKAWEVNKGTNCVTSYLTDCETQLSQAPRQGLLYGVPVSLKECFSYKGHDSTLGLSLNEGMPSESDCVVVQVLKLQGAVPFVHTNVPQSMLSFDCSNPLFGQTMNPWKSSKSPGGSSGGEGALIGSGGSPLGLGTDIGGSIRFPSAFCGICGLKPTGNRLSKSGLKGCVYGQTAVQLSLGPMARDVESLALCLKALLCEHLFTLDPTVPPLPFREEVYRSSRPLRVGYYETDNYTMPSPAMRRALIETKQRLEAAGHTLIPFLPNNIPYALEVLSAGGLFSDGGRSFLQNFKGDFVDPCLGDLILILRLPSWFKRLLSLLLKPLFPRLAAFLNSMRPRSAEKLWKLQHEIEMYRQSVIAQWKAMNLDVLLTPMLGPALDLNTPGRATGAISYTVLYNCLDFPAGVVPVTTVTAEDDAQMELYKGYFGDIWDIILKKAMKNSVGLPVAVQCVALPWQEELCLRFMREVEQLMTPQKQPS
The test is described as follows: Assay Method 2: FAAH assay, 3H-anandamide hydrolysis in cell homogenate. It counts as biochemical. Conditions: average of results obtained, > value = solubility limit or highest concentration tested. As to the method: A. Transfection of Cells with Rat FAAH
The assay mixture consisted of 50 μL of the cell homogenate, 10 μL of the test compound, and 40 μL of anandamide [1-^3H-ethanolamine] (^3H-AEA, Perkin-Elmer, 10.3 Ci/mmol), which was added last, for a final tracer concentration of 80 nM. The reaction mixture was incubated at rt for 1 h. During the incubation, 96-well Multiscreen filter plates (catalog number MAFCNOB50; Millipore, Bedford, Mass., USA) were loaded with 25 μL of activated charcoal (Multiscreen column loader, catalog number MACL09625, Millipore) and washed once with 100 μL of MeOH. […] After the 1 h incubation, 60 μL of the reaction mixture were transferred to the charcoal plates, which were then assembled on top of the DYNEX plates using Centrifuge Alignment Frames (catalog number MACF09604, Millipore). The unbound labeled ethanolamine was centrifuged through to the bottom plate (5 min at 2000 rpm), which was preloaded with the scintillant, as described above. The plates were sealed and left at rt for 1 h before counting on a Hewlett Packard TopCount.

Test [2] concerns the target T2, FAAH (Homo sapiens, UniProt O00519).
T2 sequence (O00519 1-579): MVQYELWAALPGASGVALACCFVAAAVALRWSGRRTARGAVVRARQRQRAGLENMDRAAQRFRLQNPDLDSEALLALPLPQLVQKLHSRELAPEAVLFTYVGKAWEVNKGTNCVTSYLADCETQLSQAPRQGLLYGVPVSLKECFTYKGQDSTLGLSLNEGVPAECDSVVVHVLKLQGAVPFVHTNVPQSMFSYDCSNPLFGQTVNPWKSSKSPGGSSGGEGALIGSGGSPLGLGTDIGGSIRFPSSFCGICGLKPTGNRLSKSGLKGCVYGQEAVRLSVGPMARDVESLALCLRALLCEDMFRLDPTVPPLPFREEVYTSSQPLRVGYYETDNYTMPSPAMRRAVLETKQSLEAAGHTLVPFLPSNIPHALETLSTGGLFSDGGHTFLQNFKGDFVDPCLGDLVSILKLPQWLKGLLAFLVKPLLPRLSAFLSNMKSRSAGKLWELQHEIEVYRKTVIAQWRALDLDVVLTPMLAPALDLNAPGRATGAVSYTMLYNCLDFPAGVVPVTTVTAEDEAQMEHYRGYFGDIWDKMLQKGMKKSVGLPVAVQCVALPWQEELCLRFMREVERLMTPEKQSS
The test is described as follows: Assay Method 1: FAAH assay, 3H-anandamide hydrolysis in cell homogenate.

The structures appear in SMILES notation.

Here are results for 23 compounds from patent US8877769B2, “Heteroaryl-substituted urea modulators of fatty acid amide hydrolase” (Janssen Pharmaceutica NV, priority 2008, dated 2014).

Broadly, the IC50 is the concentration needed to halve the response being measured. Consider `O=C(Nc1noc2ncccc12)N1CCN(Cc2cnc3ccccc3c2)CC1` [Example 10, 4-Quinolin-3-ylmethyl-piperazine-1-carboxylic acid isoxazolo[5,4-b]pyridin-3-ylamide], for which the IC50 in test [1] and in test [2] was more than 10000 nM each time.

With `O=C(Nc1noc2ncccc12)N1CCN(Cc2ccc(Br)cc2)CC1` [Example 11, 4-(4-Bromo-benzyl)-piperazine-1-carboxylic acid isoxazolo[5,4-b]pyridin-3-ylamide], the IC50 in test [1] and in test [2] was more than 10000 nM each time.

Turning to `O=C(Nc1noc2ncccc12)N1CCN(Cc2ccc3ccccc3n2)CC1` [Example 12, 4-Quinolin-2-ylmethyl-piperazine-1-carboxylic acid isoxazolo[5,4-b]pyridin-3-ylamide], the IC50 was more than 10000 nM in test [1] and 2600 nM in test [2].

`O=C(Nc1noc2ncccc12)N1CCN(Cc2ccc(Cl)c(Cl)c2)CC1` [Example 13, 4-(3,4-Dichloro-benzyl)-piperazine-1-carboxylic acid isoxazolo[5,4-b]pyridin-3-ylamide]: the IC50 in test [1] came out at 3000 nM; in test [2], 460 nM.

As for `O=C(Nc1noc2ncccc12)N1CCN(Cc2cccc(Oc3ccc(F)c(C(F)(F)F)c3)c2)CC1` [Example 14, 4-[3-(4-Fluoro-3-trifluoromethyl-phenoxy)-benzyl]-piperazine-1-carboxylic acid isoxazolo[5,4-b]pyridin-3-ylamide], the IC50 in test [1] was determined as 4000 nM; in test [2] it was 470 nM.

Turning to `O=C(Nc1noc2ncccc12)N1CCN(Cc2cccc(Oc3cccc(C(F)(F)F)c3)c2)CC1` [Example 15, 4-[3-(3-Trifluoromethyl-phenoxy)-benzyl]-piperazine-1-carboxylic acid isoxazolo[5,4-b]pyridin-3-ylamide], the IC50 in test [1] turned out to be 860 nM; in test [2], 300 nM.

For the compound `N#Cc1cccc(Oc2cccc(CN3CCN(C(=O)Nc4noc5ncccc45)CC3)c2)c1` [Example 16, 4-[3-(3-Cyano-phenoxy)-benzyl]-piperazine-1-carboxylic acid isoxazolo[5,4-b]pyridin-3-ylamide], the IC50 came out at 6000 nM in test [1] and 2000 nM in test [2].

As for `O=C(Nc1noc2ncccc12)N1CCN(Cc2cccc(Oc3ccc(SC(F)(F)F)cc3)c2)CC1` [Example 17, 4-[3-(4-Trifluoromethylsulfanyl-phenoxy)-benzyl]-piperazine-1-carboxylic acid isoxazolo[5,4-b]pyridin-3-ylamide], the IC50 in test [1] turned out to be 180 nM; in test [2], 470 nM.

As to `O=C(Nc1noc2ncccc12)N1CCN(Cc2cccc(Oc3ccc4ncccc4c3)c2)CC1` [Example 18, 4-[3-(Quinolin-6-yloxy)-benzyl]-piperazine-1-carboxylic acid isoxazolo[5,4-b]pyridin-3-ylamide], the IC50 in test [1] is more than 10000 nM; in test [2], 6000 nM.

For `N#Cc1ccc(Oc2cccc(CN3CCN(C(=O)Nc4noc5ncccc45)CC3)c2)cc1C(F)(F)F` [Example 19, 4-[3-(4-Cyano-3-trifluoromethyl-phenoxy)-benzyl]-piperazine-1-carboxylic acid isoxazolo[5,4-b]pyridin-3-ylamide], the IC50 in test [1] and in test [2] was more than 10000 nM throughout.

Regarding `O=C(Nc1noc2ncccc12)N1CCN(Cc2cccc(OCc3ccccc3)c2)CC1` [Example 21, 4-(3-Benzyloxy-benzyl)-piperazine-1-carboxylic acid isoxazolo[5,4-b]pyridin-3-ylamide], the figures for the IC50 in test [1] and in test [2] were more than 10000 nM and 2000 nM, respectively.

As to `O=C(Nc1noc2ncccc12)N1CCN(Cc2cccc(Oc3ccc(S(=O)(=O)C(F)(F)F)cc3)c2)CC1` [Example 22, 4-[3-(4-Trifluoromethanesulfonyl-phenoxy)-benzyl]-piperazine-1-carboxylic acid isoxazolo[5,4-b]pyridin-3-ylamide], the IC50 in test [1] and in test [2] was more than 10000 nM throughout.

For `O=C(Nc1noc2ncccc12)N1CCN(Cc2cccc(Oc3cccc(Cl)c3)c2)CC1` [Example 23, 4-[3-(3-Chloro-phenoxy)-benzyl]-piperazine-1-carboxylic acid isoxazolo[5,4-b]pyridin-3-ylamide], the IC50 in test [1] amounted to 300 nM; in test [2] it was 220 nM.

On to `O=C(Nc1noc2ncccc12)N1CCN(Cc2cccc(Oc3ccc(Br)cc3)c2)CC1` [Example 24, 4-[3-(4-Bromo-phenoxy)-benzyl]-piperazine-1-carboxylic acid isoxazolo[5,4-b]pyridin-3-ylamide], for which the IC50 in test [1] amounted to 53 nM; in test [2], 34 nM.

With `O=C(Nc1noc2ncccc12)N1CCN(Cc2ccc(Br)c(Br)c2)CC1` [Example 25, 4-(3,4-Dibromo-benzyl)-piperazine-1-carboxylic acid isoxazolo[5,4-b]pyridin-3-ylamide], the IC50 in test [1] turned out to be 3000 nM; in test [2], 370 nM.

Take `O=C(Nc1noc2ncccc12)N1CCN(Cc2cccc(Oc3ccc(F)c(F)c3)c2)CC1` [Example 26, 4-[3-(3,4-Difluoro-phenoxy)-benzyl]-piperazine-1-carboxylic acid isoxazolo[5,4-b]pyridin-3-ylamide]: the half-maximal inhibitory concentration (IC50) in test [1] was more than 10000 nM; in test [2], 3200 nM.

`O=C(Nc1noc2ncccc12)N1CCN(Cc2cccc(Oc3ccccc3)c2)CC1` [Example 27, 4-(3-Phenoxy-benzyl)-piperazine-1-carboxylic acid isoxazolo[5,4-b]pyridin-3-ylamide]: the half-maximal inhibitory concentration (IC50) in test [1] and in test [2] was more than 10000 nM throughout.

In the case of `O=C(Nc1noc2ncccc12)N1CCN(Cc2cc3ccccc3s2)CC1` [Example 28, 4-Benzo[b]thiophen-2-ylmethyl-piperazine-1-carboxylic acid isoxazolo[5,4-b]pyridin-3-ylamide], the values for the IC50 in test [1] and in test [2] were more than 10000 nM and 6000 nM, respectively.

`O=C(Nc1noc2ncccc12)N1CCN(Cc2cccc(Oc3ccc(C(F)(F)F)cc3)c2)CC1` [Example 30, 4-[3-(4-Trifluoromethyl-phenoxy)-benzyl]-piperazine-1-carboxylic acid isoxazolo[5,4-b]pyridin-3-ylamide]: the IC50 in test [1] amounted to 430 nM; in test [2], 340 nM.

With `O=C(Nc1noc2ncccc12)N1CCN(Cc2cc3ccccc3o2)CC1` [Example 31, 4-Benzofuran-2-ylmethyl-piperazine-1-carboxylic acid isoxazolo[5,4-b]pyridin-3-ylamide], the IC50 in test [1] is more than 10000 nM; in test [2], 3000 nM.

Take `N#Cc1ccc(Oc2cccc(CN3CCN(C(=O)Nc4noc5ncccc45)CC3)c2)cc1` [Example 32, 4-[3-(4-Cyano-phenoxy)-benzyl]-piperazine-1-carboxylic acid isoxazolo[5,4-b]pyridin-3-ylamide]: the IC50 worked out at 2300 nM in test [1] and 300 nM in test [2].

Turning to `O=C(Nc1noc2ncccc12)N1CCN(Cc2cccc(Oc3ccc(OCC(F)(F)F)cc3)c2)CC1` [Example 33, 4-{3-[4-(2,2,2-Trifluoro-ethoxy)-phenoxy]-benzyl}-piperazine-1-carboxylic acid isoxazolo[5,4-b]pyridin-3-ylamide], the IC50 in test [1] and in test [2] was 200 nM in each case.

As to `O=C(Nc1noc2ncccc12)N1CCN(Cc2cccc(Oc3ccc4c(c3)OC(F)(F)O4)c2)CC1` [Example 34, 4-[3-(2,2-Difluoro-benzo[1,3]dioxol-5-yloxy)-benzyl]-piperazine-1-carboxylic acid isoxazolo[5,4-b]pyridin-3-ylamide], the IC50 in test [1] was more than 400 nM; in test [2], more than 60 nM.
